Test results as given in US9770421B2, “Uses for idebenone and related benzoquinones in metabolic disorders and other PPAR α/γ related diseases and conditions” (INDANIO BIOSCIENCE INC., priority 2013, dated 2017).
Entries after “also recorded” stand apart in the source; their conditions may differ.

What was measured:
[1] = test system: C57Bl/6 db/db mice; test: db/db mouse study (NAFLD features); assay type: in vivo; conditions: for Decrease in liver weight in comparison to vehicle treated mice: 3 weeks
Method: Db/db study: Forty male C57Bl/6 db/db mice (called B6.BKS(D)-Lepr db/J) were ordered from Jackson Laboratories (#000697) at 7 weeks of age. Mice were housed individually with free access to food (2016 Teklad Global 16% Protein Rodent Diet) and water on a 14 hour light/dark cycle (6 a.m. to 8 p.m. light). […] Food was exchanged on a daily bases. Harlan corn cob bedding was provided and was changed every week or as needed. Following a 1 week acclimation, 32 mice were chosen based on desired body weight range. Remaining mice were euthanized. Mice were randomized by body weight into four treatment groups (n=8) by body weight. Dosing occurred for 21 days. Mice were euthanized by CO2 euthanasia and livers were fixed in neutral buffered formalin (NBF) for 24 h, followed by a one day fixation in 30% Sucrose and 10% Sucrose. Oil O Red staining was performed through the Pathology Research Program at the University Health Network in Toronto [46]. [table] 100 mg of db/db livers were homogenized in RIPA buffer and protein concentration was quantified using a BCA protein assay kit (Cell signalling #7780) followed by measurement of ‘Thiobarbituric Acid Reactive Substances’ (TBARS) using a TBARS assay kit (Cayman Chemicals #10009055). Total RNA was extracted from 100 mg of db/db livers using RNA STAT-60 (Tel-Test, Inc.), treated with DNase I (RNase-free, Roche), and reverse transcribed into cDNA with random hexamers using the High Capacity Reverse transcription system (Applied Biosystems, ABI). Primers used are shown below and were validated as previously described. Real-time QPCR reactions were performed on an ABI 7900 in 384-well plates containing 12.5 ng cDNA, 150 nM of each primer, and 5 μl 2×SYBR Green PCR Master Mix (ABI) in a 10 μl total volume. Relative mRNA levels were calculated using the comparative Ct method normalized to cyclophilin mRNA.

[2] = biological target: T1, PPARα (Homo sapiens, UniProt Q07869); test: HEK293 cell culture luciferase reporter assay, hPPARα
T1 sequence (Q07869 178-468): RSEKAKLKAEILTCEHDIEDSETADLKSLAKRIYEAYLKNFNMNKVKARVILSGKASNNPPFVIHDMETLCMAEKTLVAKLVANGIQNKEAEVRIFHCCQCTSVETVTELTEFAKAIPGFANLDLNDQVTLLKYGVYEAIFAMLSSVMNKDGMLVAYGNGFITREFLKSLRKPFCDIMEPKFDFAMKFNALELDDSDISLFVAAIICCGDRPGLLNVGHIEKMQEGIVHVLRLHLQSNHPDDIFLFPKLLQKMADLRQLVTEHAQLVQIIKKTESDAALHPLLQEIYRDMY

[3] = biological target: T1, PPARα; test: PPARα ligand trap zebrafish GFP reporter assay; assay type: in vivo; set-up: pLT PPARα (aa 178-468) and pLT PPAR γ (aa 188-477) lines; expressed in transfected cells; host or cells: transgenic zebrafish embryos (ligand-trap line); conditions: transgenic embryos, 48 hpf
Method: Zebrafish were maintained at 28.5° C. on a 14/10 hour light/dark cycle and staged according to hours (h) or days (d) postfertilization. To generate pLT PPARα (aa 178-468) and pLT PPAR γ (aa 188-477) lines, plasmids were pre-digested with I-SceI (0.8 μg DNA, 1 μl I-SceI (New England Biolabs) 2 μl 10×I-SceI buffer, 1 μl BSA) for 20 min at 37° C. Digested DNA was adjusted with 0.1% phenol red. 4.6 nl of DNA solution was injected into the blastomeres of early one-cell stage embryos.
F0 fish were crossed with WT fish to identify germ-line transformed animals, as determined by agonist treatments and GFP expression. F1 progeny showing strong and consistent GFP responses were selected for F2 homozygote production. To avoid reporter GFP silencing of stable transgenic LT lines, homozygous fish showing strong and consistent GFP responses were selected for continued propagation of next generations.
PPARγ ligand trap zebrafish screens were performed under optimized conditions in 96-well format using the ImageXpress Velos Laser Scanning Cytometer. 1 or 2 dpf embryos were heat induced (28→37° C.) for 30 minutes, de-chorionated and then arrayed in 96-well plates (5 per well). […] Embryos were incubated at 28° C. for 14 h, anesthetized with Tricaine (Sigma, Cat. # A-5040) and then analyzed for GFP fluorescence using the ImageXpress Velos Laser Scanning Cytometer.

For `COC1=C(OC)C(=O)C(CCCCCCCCCCO)=C(C)C1=O` [Idebenone, 2-(10-hydroxydecyl)-5,6-dimethoxy-3-methyl-2,5-cyclohexadiene-1,4-dione], which “Histological NAFLD features of liver” value ([1]; 3 weeks in food) is on record?
The value was “reversed these histological NAFLD”.

What about the “Decrease in liver weight in comparison to vehicle treated mice” value ([1]; 900 mpk in food) of the same compound?
Its value is 3%.

And the “Decrease in liver weight in comparison to vehicle treated mice” value ([1]; 1800 mpk in food)?
The value was 6.5%.

And the “Liver ADFP mRNA expression (QPCR)” value ([1]; 21 days)?
Its value is “down regulated”.

And the “Liver PLIN4 mRNA expression (QPCR)” value ([1]; 21 days)?
The value was “down regulated”.

And the “Liver lipid content (Oil Red O staining)” value ([1]; 21 days, 900/1800 mpk idebenone, 10 mpk rosiglitazone)?
Its value is “significant dose-dependent decrease in fat; also recorded: significant dose dependent decrease in fat”.

And the “Liver lipid peroxides (TBARS)” value ([1]; liver homogenates, 21 days)?
The value was “reduced”.

What about the EC50 [2] of the same compound?
Its EC50 is 3 µM.

What about the “Maximum activation level versus full agonist, PPARα” value ([2]; HEK293, full agonist GW7647) of the same compound?
The value was “significantly lower than those obtained using the full agonists”.

What about the “GFP response of PPARα LT line” value [3] of the same compound?
The value was “robust response; also recorded: dual agonists for PPARα and PPARγ”.
